Patent EP0908457B1, “3-(1,2-benzisothiazol- and isoxazol-5-Y1)-2,4(1H,3H)-pyrimidinedione or thione and 3-(1,2-benzisothiazol- and isoxazol-5-y1)-4(3H)-pyrimidinone or thione herbicidal agents” (BASF AKTIENGESELLSCHAFT, priority 1997, dated 1999)

Columns and labels:
[1] = tested on: Monochoria vaginalis, Presl.; test: Preemergence weed control under flooded paddy conditions, MOOVA (Monochoria); format: in vivo; conditions: flooded paddy, rated three to four weeks after treatment; further: meaning of each grade not given here
Cyperus iria = test: Preemergence weed control under flooded paddy conditions, CYPIR (Rice Flatsedge); format: in vivo; conditions: flooded paddy, rated three to four weeks after treatment; further: meaning of each grade not given here
[2] = tested on: Cyperus serotinus, Rottb.; test: Preemergence weed control under flooded paddy conditions, CYPSE (Flatsedge); format: in vivo; conditions: rated three to four weeks after treatment; further: meaning of each grade not given here
[3] = tested on: Echinochloa oryzoides (Ard.) Fritsch.; test: Preemergence weed control under flooded paddy conditions, ECHORC (Watergrass (Calif.)); format: in vivo; conditions: flooded paddy, rated three to four weeks after treatment; further: meaning of each grade not given here
Sagittaria pygmaea, L. = test: Preemergence weed control under flooded paddy conditions, SAGPY (Arrowhead (Pygmaea)); format: in vivo; conditions: flooded paddy, rated three to four weeks after treatment; further: meaning of each grade not given here
[4] = tested on: Oryza sativa, (L.) Tebonnet; test: Rice tolerance to post-transplant applications under flooded paddy conditions (Example 187), ORYSAT (Rice, Tebonnet); conditions: rated three to four weeks after treatment
[5] = 0.0313 kg/ha, preemergence weeds
[6] = 0.0625 kg/ha, preemergence weeds
[7] = 0.1250 kg/ha, preemergence weeds
[8] = 0.2500 kg/ha, preemergence weeds

Q: How did the “herbicidal effect rating, MOOVA” value [1, 5] turn out when Cc1ccc(OC2CC(C)OC2=O)c(-c2nsc3ccc(-n4c(=O)cc(C(F)(F)F)n(C)c4=O)cc23)c1 (racemic) [Example 189, 1-Methyl-3-{3-{6-[(tetrahydro-5-methyl-2-oxo-3-furyl)oxy]-m-tolyl}-1,2-benzisothiazol-5-yl}-6-(trifluoromethyl)-2,4(1H,3H)-pyrimidinedione, DL-] was run?
A: Its value is 0.0.

Q: What about the “herbicidal effect rating, MOOVA” value [1, 6] of the same compound?
A: Its value is 0.0.

Q: What about the “herbicidal effect rating, MOOVA” value [1, 7] of the same compound?
A: The value was 2.0.

Q: What about the “herbicidal effect rating, MOOVA” value [1, 8] of the same compound?
A: The value was 8.0.

Q: What about the “herbicidal effect rating, CYPIR” value (Cyperus iria; [5]) of the same compound?
A: The value was 0.0.

Q: And the “herbicidal effect rating, CYPIR” value (Cyperus iria; [6])?
A: The value was 0.0.

Q: What about the “herbicidal effect rating, CYPIR” value (Cyperus iria; [7]) of the same compound?
A: The value was 0.0.

Q: And the “herbicidal effect rating, CYPIR” value (Cyperus iria; [8])?
A: Its value is 0.0.

Q: And the “herbicidal effect rating, CYPSE” value [2, 5]?
A: Its value is 0.0.

Q: And the “herbicidal effect rating, CYPSE” value [2, 6]?
A: Its value is 0.0.

Q: What about the “herbicidal effect rating, CYPSE” value [2, 7] of the same compound?
A: Its value is 0.0.

Q: And the “herbicidal effect rating, CYPSE” value [2, 8]?
A: Its value is 0.0.

Q: What about the “herbicidal effect rating, ECHORC” value [3, 5] of the same compound?
A: Its value is 0.0.

Q: What about the “herbicidal effect rating, ECHORC” value [3, 6] of the same compound?
A: The value was 0.0.

Q: What about the “herbicidal effect rating, ECHORC” value [3, 7] of the same compound?
A: The value was 0.0.

Q: What about the “herbicidal effect rating, ECHORC” value [3, 8] of the same compound?
A: The value was 0.0.

Q: And the “herbicidal effect rating, SAGPY” value (Sagittaria pygmaea, L.; [5])?
A: The value was 0.0.

Q: What about the “herbicidal effect rating, SAGPY” value (Sagittaria pygmaea, L.; [6]) of the same compound?
A: Its value is 0.0.

Q: And the “herbicidal effect rating, SAGPY” value (Sagittaria pygmaea, L.; [7])?
A: The value was 0.0.

Q: What about the “herbicidal effect rating, SAGPY” value (Sagittaria pygmaea, L.; [8]) of the same compound?
A: The value was 0.0.

Q: And the “herbicidal effect rating, ORYSAT (rice tolerance)” value (“herbicidal effect rating, ORYSAT” below) ([4]; 0.0313 kg/ha)?
A: Its value is 0.0.

Q: What about the “herbicidal effect rating, ORYSAT” value ([4]; 0.0625 kg/ha) of the same compound?
A: Its value is 0.0.

Q: What about the “herbicidal effect rating, ORYSAT” value ([4]; 0.1250 kg/ha) of the same compound?
A: The value was 0.0.

Q: What about the “herbicidal effect rating, ORYSAT” value ([4]; 0.2500 kg/ha) of the same compound?
A: Its value is 0.0.

Q: How did the “herbicidal effect rating, MOOVA” value [1, 5] turn out when COCC(C)OC(=O)COc1ccc(C)cc1-c1nsc2ccc(-n3c(=O)cc(C(F)(F)F)n(C)c3=O)cc12 (racemic) [Example 192, 1-Methyl-2-methoxyethyl {{2-{5-[3,6-dihydro-3-methyl-2,6-dioxo-4-(trifluoromethyl)-1(2H)-pyrimidinyl]-1,2-benzisothiazol-3-yl}-p-tolyl}oxy}acetate, DL-] was run?
A: Its value is 9.0.

Q: What about the “herbicidal effect rating, MOOVA” value [1, 6] of the same compound?
A: The value was 9.0.

Q: And the “herbicidal effect rating, MOOVA” value [1, 7]?
A: Its value is 9.0.

Q: What about the “herbicidal effect rating, MOOVA” value [1, 8] of the same compound?
A: The value was 9.0.

Q: And the “herbicidal effect rating, CYPIR” value (Cyperus iria; [5])?
A: The value was 0.0.

Q: What about the “herbicidal effect rating, CYPIR” value (Cyperus iria; [6]) of the same compound?
A: Its value is 0.0.

Q: And the “herbicidal effect rating, CYPIR” value (Cyperus iria; [7])?
A: The value was 2.0.

Q: And the “herbicidal effect rating, CYPIR” value (Cyperus iria; [8])?
A: The value was 7.0.

Q: And the “herbicidal effect rating, CYPSE” value [2, 5]?
A: The value was 0.0.

Q: What about the “herbicidal effect rating, CYPSE” value [2, 6] of the same compound?
A: The value was 0.0.

Q: What about the “herbicidal effect rating, CYPSE” value [2, 7] of the same compound?
A: Its value is 0.0.

Q: And the “herbicidal effect rating, ECHORC” value [3, 5]?
A: The value was 1.0.

Q: And the “herbicidal effect rating, ECHORC” value [3, 6]?
A: The value was 4.0.

Q: What about the “herbicidal effect rating, ECHORC” value [3, 7] of the same compound?
A: Its value is 9.0.

Q: What about the “herbicidal effect rating, ECHORC” value [3, 8] of the same compound?
A: Its value is 9.0.

Q: What about the “herbicidal effect rating, SAGPY” value (Sagittaria pygmaea, L.; [5]) of the same compound?
A: The value was 0.0.

Q: What about the “herbicidal effect rating, SAGPY” value (Sagittaria pygmaea, L.; [6]) of the same compound?
A: Its value is 0.0.

Q: And the “herbicidal effect rating, SAGPY” value (Sagittaria pygmaea, L.; [7])?
A: The value was 2.0.

Q: What about the “herbicidal effect rating, SAGPY” value (Sagittaria pygmaea, L.; [8]) of the same compound?
A: The value was 9.0.

Q: And the “herbicidal effect rating, ORYSAT” value ([4]; 0.0313 kg/ha)?
A: The value was 1.0.

Q: What about the “herbicidal effect rating, ORYSAT” value ([4]; 0.0625 kg/ha) of the same compound?
A: The value was 2.0.

Q: And the “herbicidal effect rating, ORYSAT” value ([4]; 0.1250 kg/ha)?
A: The value was 3.0.

Q: And the “herbicidal effect rating, ORYSAT” value ([4]; 0.2500 kg/ha)?
A: The value was 4.0.

Q: How did the “herbicidal effect rating, MOOVA” value ([1]; 0.0313 kg/ha, preemergence) turn out when CSCc1nsc2ccc(-n3c(=O)cc(C(F)(F)F)n(C)c3=O)cc12 [Example 21, 1-Methyl-3-{3-{(methylthio)methyl]-1,2-benzisothiazol-5-yl}-6-(trifluoromethyl)-2,4(1H,3H)-pyrimidinedione] was run?
A: Its value is 4.0.

Q: And the “herbicidal effect rating, MOOVA” value ([1]; 0.0625 kg/ha, preemergence)?
A: The value was 6.0.

Q: And the “herbicidal effect rating, MOOVA” value ([1]; 0.1250 kg/ha, preemergence)?
A: The value was 7.5.

Q: What about the “herbicidal effect rating, MOOVA” value ([1]; 0.2500 kg/ha, preemergence) of the same compound?
A: The value was 9.0.

Q: And the “herbicidal effect rating, CYPIR” value (Cyperus iria; 0.0313 kg/ha, preemergence)?
A: Its value is 0.0.

Q: And the “herbicidal effect rating, CYPIR” value (Cyperus iria; 0.0625 kg/ha, preemergence)?
A: The value was 0.0.

Q: And the “herbicidal effect rating, CYPIR” value (Cyperus iria; 0.1250 kg/ha, preemergence)?
A: Its value is 0.5.

Q: What about the “herbicidal effect rating, CYPIR” value (Cyperus iria; 0.2500 kg/ha, preemergence) of the same compound?
A: The value was 1.0.

Q: And the “herbicidal effect rating, CYPSE” value ([2]; 0.0313 kg/ha, preemergence)?
A: The value was 0.0.

Q: What about the “herbicidal effect rating, CYPSE” value ([2]; 0.0625 kg/ha, preemergence) of the same compound?
A: The value was 0.0.

Q: And the “herbicidal effect rating, CYPSE” value ([2]; 0.1250 kg/ha, preemergence)?
A: The value was 0.0.

Q: What about the “herbicidal effect rating, CYPSE” value ([2]; 0.2500 kg/ha, preemergence) of the same compound?
A: Its value is 0.0.

Q: What about the “herbicidal effect rating, ECHORC” value ([3]; 0.0313 kg/ha, preemergence) of the same compound?
A: Its value is 0.0.

Q: And the “herbicidal effect rating, ECHORC” value ([3]; 0.0625 kg/ha, preemergence)?
A: Its value is 0.7.

Q: And the “herbicidal effect rating, ECHORC” value ([3]; 0.1250 kg/ha, preemergence)?
A: The value was 2.7.

Q: And the “herbicidal effect rating, ECHORC” value ([3]; 0.2500 kg/ha, preemergence)?
A: Its value is 4.7.

Q: And the “herbicidal effect rating, SAGPY” value (Sagittaria pygmaea, L.; 0.0313 kg/ha, preemergence)?
A: The value was 0.0.

Q: What about the “herbicidal effect rating, SAGPY” value (Sagittaria pygmaea, L.; 0.0625 kg/ha, preemergence) of the same compound?
A: Its value is 0.0.

Q: And the “herbicidal effect rating, SAGPY” value (Sagittaria pygmaea, L.; 0.1250 kg/ha, preemergence)?
A: The value was 0.0.

Q: What about the “herbicidal effect rating, SAGPY” value (Sagittaria pygmaea, L.; 0.2500 kg/ha, preemergence) of the same compound?
A: The value was 0.0.

Q: And the “herbicidal effect rating, ORYSAT” value ([4]; 0.0313 kg/ha)?
A: The value was 1.7.

Q: And the “herbicidal effect rating, ORYSAT” value ([4]; 0.0625 kg/ha)?
A: Its value is 2.0.

Q: What about the “herbicidal effect rating, ORYSAT” value ([4]; 0.1250 kg/ha) of the same compound?
A: Its value is 2.3.

Q: And the “herbicidal effect rating, ORYSAT” value ([4]; 0.2500 kg/ha)?
A: Its value is 4.3.
